This passage reports IC50 results from patent US8492589B2, “Alkynyl phenyl derivative compounds for treating ophthalmic diseases and disorders” (Acucela Inc., priority 2007, dated 2013).

A value given as a limit tells only on which side of the number the result lay.

This assay concerns the target T1, visual cycle isomerase (Bovine RPE microsome membranes) (Bos taurus, UniProt Q28175).
T1 construct: Bovine Retinal Pigment Epithelium (RPE) microsome membranes were the source of a visual cycle isomerase; from tissue; host or cells: bovine retinal pigment epithelium microsome membranes
T1 sequence (Q28175 2-533 limits assumed): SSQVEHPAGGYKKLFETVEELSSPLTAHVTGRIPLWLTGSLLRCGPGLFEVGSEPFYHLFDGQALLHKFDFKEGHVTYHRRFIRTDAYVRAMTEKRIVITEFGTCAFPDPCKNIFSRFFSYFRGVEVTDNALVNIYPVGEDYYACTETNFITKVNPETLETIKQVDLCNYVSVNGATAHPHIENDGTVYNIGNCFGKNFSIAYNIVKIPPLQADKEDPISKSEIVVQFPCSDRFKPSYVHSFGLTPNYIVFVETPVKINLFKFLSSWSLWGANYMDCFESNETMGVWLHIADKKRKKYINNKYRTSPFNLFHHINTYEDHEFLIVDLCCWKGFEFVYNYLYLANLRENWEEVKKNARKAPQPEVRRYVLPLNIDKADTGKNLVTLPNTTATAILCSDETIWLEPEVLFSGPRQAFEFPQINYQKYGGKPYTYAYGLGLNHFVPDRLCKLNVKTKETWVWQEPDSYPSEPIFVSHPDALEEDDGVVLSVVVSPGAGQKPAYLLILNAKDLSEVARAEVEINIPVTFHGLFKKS
Put plainly: In vitro isomerase inhibition assay, bovine RPE microsome membranes. The format is biochemical. Particulars: bovine RPE microsomes; 11-cis retinol formation. The method, then:
The capability of alkynyl phenyl-linked amine derivative compounds to inhibit the activity of a visual cycle isomerase was determined.
Bovine Retinal Pigment Epithelium (RPE) microsome membranes were the source of a visual cycle isomerase.
Crude RPE microsome extracts were thawed in a 37° C. water bath, and then immediately placed on ice. 50 ml crude RPE microsomes were placed into a 50 ml Teflon-glass homogenizer (Fisher Scientific, catalog no. 0841416M) on ice, powered by a hand-held DeWalt drill, and homogenized ten times up and down on ice under maximum speed. This process was repeated until the crude RPE microsome solution was homogenized. The homogenate was then subjected to centrifugation (50.2 Ti rotor (Beckman, Fullerton, Calif.), 13,000 RPM; 15360 Rcf) for 15 minutes at 4° C. The supernatant was collected and subjected to centrifugation at 42,000 RPM (160,000 Rcf; 50.2 Ti rotor) for 1 hour at 4° C. The supernatant was removed, and the pellets were suspended in 12 ml (final volume) cold 10 mM MOPS buffer, pH 7.0. The resuspended RPE membranes in 5 ml aliquots were homogenized in a glass-to-glass homogenizer (Fisher Scientific, catalog no. K885500-0021) to high homogeneity. Protein concentration was quantified using the BCA protein assay according to the manufacturer's protocol (Pierce, Rockford, Ill.). The homogenized RPE preparations were stored at −80° C.
Recombinant human apo cellular retinaldehyde-binding protein (CRALBP) was cloned and expressed according to standard methods in the molecular biology art (see Crabb et al., Protein Science 7:746-57 (1998); Crabb et al., J. Biol. Chem. 263:18688-92 (1988)). Briefly, total RNA was prepared from confluent ARPE19 cells (American Type Culture Collection, Manassas, Va.), cDNA was synthesized using an oligo(dT)12-18 primer, and then DNA encoding CRALBP was amplified by two sequential polymerase chain reactions (see Crabb et al., J. Biol. Chem. 263:18688-92 (1988); Intres, et al., J. Biol. Chem. 269:25411-18 (1994); GenBank Accession No. L34219.1). The PCR product was sub-cloned into pTrcHis2-TOPO TA vector according to the manufacturer's protocol (Invitrogen Inc., Carlsbad, Calif.; catalog no. K4400-01), and then the sequence was confirmed according to standard nucleotide sequencing techniques. Recombinant 6×His-tagged human CRALBP was expressed in One Shot TOP 10 chemically competent E. coli cells (Invitrogen), and the recombinant polypeptide was isolated from E. coli cell lysates by nickel affinity chromatography using nickel (Ni) Sepharose XK16-20 columns for HPLC (Amersham Bioscience, Pittsburgh, Pa.; catalog no. 17-5268-02). The purified 6×His-tagged human CRALBP was dialyzed against 10 mM bis-tris-Propane (BTP) and analyzed by SDS-PAGE. The molecular weight of the recombinant human CRALBP was approximately 39 kDal.
Alkkynyl phenyl-linked amine derivative compounds and control compounds were reconstituted in ethanol to 0.1 M. Ten-fold serial dilutions (10^−2, 10^−3, 10^−4, 10^−5, 10^−6 M) in ethanol of each compound were prepared for analysis in the isomerase assay.
The isomerase assay was performed in 10 mM bis-tris-propane (BTP) buffer, pH 7.5, 0.5% BSA (diluted in BTP buffer), 1 mM sodium pyrophosphate, 20 μM all-trans retinol (in ethanol), and 6 μM apo-CRALBP. The test compounds (2 μl) (final […] dilution of serial dilution stocks) were added to the above reaction mixture to which RPE microsomes were added. The same volume of ethanol was added to the control reaction (absence of test compound). Bovine RPE microsomes (9 μl) (see above) were then added, and the mixtures transferred to 37° C. to initiate the reaction (total volume=150 μl). The reactions were stopped after 30 minutes by adding methanol (300 μl). Heptane was added (300 μl) and mixed into the reaction mixture by pipetting. Retinoid was extracted by agitating the reaction mixtures, followed by centrifugation in a microcentrifuge. […]
Regarding `CC(C)C(O)C#Cc1cccc(CCCN)c1` (centres unmarked) [Example 23, 1-(3-(3-Aminopropyl)phenyl)-4-methylpent-1-yn-3-ol], the IC50 is no more than 1 µM.

Compound `COc1ccccc1C#Cc1cccc(OCCN)c1` [Example 91, 2-(3-((2-Methoxyphenyl)Ethynyl)Phenoxy)Ethanamine] yielded an IC50 of no more than 1 µM. Under `NCCCc1cccc(C#CCO)c1` [Example 10, 3-(3-(3-Aminopropyl)phenyl)prop-2-yn-1-ol] stands no more than 100 µM. On to `CCCC#Cc1cccc(CCCN)c1` [Example 43, 3-(3-(Pent-1-ynyl)phenyl)propan-1-amine], for which the IC50 is no more than 1 µM. Under `NCCOc1cccc(C#CC2(O)CCOCC2)c1` [Example 56, 4-((3-(2-Aminoethoxy)phenyl)ethynyl)tetrahydro-2H-pyran-4-ol] stands no more than 10 µM; under `CC(C)CC#Cc1cccc(OCCN)c1` [Example 73, 2-(3-(4-Methylpent-1-ynyl)phenoxy)ethanamine], no more than 1 µM; under `NCCOc1cccc(C#Cc2ccncc2)c1` [Example 97, 2-(3-(Pyridin-4-ylethynyl)phenoxy)ethanamine], no more than 10 µM.

Compound `N#Cc1cccc(C#Cc2cccc(CCCN)c2)c1` [Example 90, 3-((3-(3-Aminopropyl)phenyl)ethynyl)benzonitrile] showed an IC50 of no more than 10 µM. Turning to `NCCCc1cccc(C#Cc2cccc(C(F)(F)F)c2)c1` [Example 92, 3-(3-((3-(Trifluoromethyl)Phenyl)Ethynyl)Phenyl)Propan-1-Amine], the IC50 is no more than 100 µM. On to `CCCCC#Cc1cccc(CCCN)c1` [Example 44, 3-(3-(Hex-1-ynyl)phenyl)propan-1-amine], for which the IC50 was no more than 1 µM. Under `CCCC(C)(O)C#Cc1cccc(CCCN)c1` (centres unmarked) [Example 5, 1-(3-(3-Aminopropyl)phenyl)-3-methylhex-1-yn-3-ol] stands no more than 1 µM; under `CC(C)(C)C#Cc1cccc(CCCN)c1` [Example 40, 3-(3-(3,3-Dimethylbut-1-Ynyl)Phenyl)Propan-1-Amine], no more than 10 µM; under `NCCOc1cccc(C#CCc2ccccc2)c1` [Example 75, 2-(3-(3-phenylprop-1-ynyl)phenoxy)ethanamine], no more than 1 µM.

The compound `Cc1ccc(C#Cc2cccc(CCCN)c2)cc1` [Example 84, 3-(3-(p-Tolylethynyl)phenyl)propan-1-amine] came in with a 50% inhibitory concentration (IC50) of no more than 100 µM. On to `CC(C)CC(C)(O)C#Cc1cccc(CCCN)c1` (centres unmarked) [Example 6, 1-(3-(3-Aminopropyl)phenyl)-3,5-dimethylhex-1-yn-3-ol], for which the IC50 was no more than 1 µM. Regarding `NCCCc1cccc(C#CCCO)c1` [Example 34, 4-(3-(3-Aminopropyl)Phenyl)But-3-Yn-1-ol], the IC50 was no more than 100 µM. On to `CCCCC(O)(C#Cc1cccc(OCCN)c1)CCCC` [Example 29, 5-((3-(2-Aminoethoxy)phenyl)ethynyl)nonan-5-ol], for which the IC50 was no more than 1 µM. For `NCCCc1cccc(C#Cc2cccc3ccccc23)c1` [Example 82, 3-(3-(Naphthalen-1-ylethynyl)phenyl)propan-1-amine], the 50% inhibitory concentration (IC50) was no more than 100 µM. The value for `NCCCc1cccc(C#CCC2CCCC2)c1` [Example 39, 3-(3-(3-Cyclopentylprop-1-ynyl)phenyl)propan-1-amine] was no more than 1 µM; that for `CCCCCC#Cc1cccc(CCCN)c1` [Example 102, 3-(3-(Hept-1-ynyl)phenyl)propan-1-amine] was no more than 1 µM. `NCCCc1cccc(C#Cc2cccnc2)c1` [Example 64, 3-(3-(Pyridin-3-ylethynyl)phenyl)propan-1-amine] had an IC50 of no more than 10 µM.

`CC1(C)CCCC(C)(C)C1(O)C#Cc1cccc(CCCN)c1` [Example 13, 1-((3-(3-Aminopropyl)phenyl)ethynyl)-2,2,6,6-tetramethylcyclohexanol] showed an IC50 of no more than 10 µM. The value for `CC(C)(C)C(O)(C#Cc1cccc(CCCN)c1)C(C)(C)C` [Example 12, 1-(3-(3-Aminopropyl)phenyl)-3-tert-butyl-4,4-dimethylpent-1-yn-3-ol] was no more than 10 µM; that for `CCCC(O)(C#Cc1cccc(CCN)c1)CCC` [Example 141, 4-((3-(2-Aminoethyl)phenyl)ethynyl)heptan-4-ol] was no more than 1 µM; that for `NCCCc1cccc(C#Cc2ccc3ccccc3c2)c1` [Example 45, 3-(3-(Naphthalen-2-ylethynyl)phenyl)propan-1-amine] was no more than 1000 µM.

In turn, `NCCCc1cccc(C#Cc2cccc(-c3ccccc3)c2)c1` [Example 46, 3-(3-(Biphenyl-3-ylethynyl)phenyl)propan-1-amine] displayed an IC50 of no more than 100 µM. The value for `Cc1cccc(C#Cc2cccc(CCCN)c2)c1` [Example 87, 3-(3-(m-Tolylethynyl)phenyl)propan-1-amine] was no more than 100 µM.

Take `CC(C)(C)c1cc(C#Cc2cccc(CCCN)c2)cc(C(C)(C)C)c1` [Example 93, 3-(3-((3,5-Di-tert-butylphenyl)ethynyl)phenyl)propan-1-amine]: the IC50 was no more than 1000 µM. The value for `CCCC(O)(C#Cc1cccc(CC(C)(C)CN)c1)CCC` [Example 20, 4-((3-(3-Amino-2,2-dimethylpropyl)phenyl)ethynyl)heptan-4-ol] was no more than 100 µM. The value for `NCCCc1cccc(C#Cc2ccccc2O)c1` [Example 89, 2-((3-(3-Aminopropyl)phenyl)ethynyl)phenol] was no more than 10 µM; that for `NCCC(O)c1cccc(C#CCc2ccccc2)c1` (centres unmarked) [Example 49, 3-Amino-1-(3-(3-phenylprop-1-ynyl)phenyl)propan-1-ol] was no more than 1 µM; that for `CCCCC(O)(C#Cc1cccc(CCCN)c1)CCCC` [Example 3, 5-((3-(3-Aminopropyl)phenyl)ethynyl)nonan-5-ol] was no more than 1 µM. Regarding `NCCOc1cccc(C#Cc2ccsc2)c1` [Example 96, 2-(3-(Thiophen-3-ylethynyl)phenoxy)ethanamine], the IC50 is no more than 10 µM.

Turning to `N#Cc1cccc(C#Cc2cccc(OCCN)c2)c1` [Example 88, 3-((3-(2-Aminoethoxy)phenyl)ethynyl)benzonitrile], the IC50 is no more than 10 µM.

`NCCOc1cccc(C#CCC2CCCC2)c1` [Example 85, 2-(3-(3-Cyclopentylprop-1-ynyl)phenoxy)ethanamine] returned an IC50 of no more than 1 µM. Under `CCCCCC#Cc1cccc(OCCN)c1` [Example 77, 2-(3-(hept-1-ynyl)phenoxy)ethanamine] stands no more than 1 µM; under `CC(O)CC#Cc1cccc(CCCN)c1` (centres unmarked) [Example 35, 5-(3-(3-Aminopropyl)phenyl)pent-4-yn-2-ol], no more than 10 µM; under `NCCCc1cccc(C#CCCc2ccccc2)c1` [Example 72, 3-(3-(4-Phenylbut-1-ynyl)phenyl)propan-1-amine], no more than 1 µM.

One may read the IC50 as the concentration that gives 50% inhibition.
